The term solubility denotes how much of the substance goes into solution per volume. Low values mean a poorly soluble substance, high ones a readily soluble substance.

Some results are limits rather than exact numbers.

1 compound from US9937192B2, “Combination therapy to treat mycobacterium diseases” (priority 2012, dated 2018) can be followed below.

A short description of data set [1]: Oral Range Finding Toxicity and Toxicokinetic Study in Male Cynomolgus Monkeys. It is filed as in vivo, Cynomolgus monkeys (Macaca Fascicularis). As for the experimental part: An Oral Range Finding Toxicity and Toxicokinetic Study in Male Cynomolgus Monkeys
The first day of dosing was designated as Day 1 of the study. The actual volume administered to each animal was calculated and adjusted based on the most recent body weight of each animal.
Cage-side clinical signs (ill health, behavioral changes etc.) were recorded at least once daily during the study.
Body weights were recorded for all animals prior to group assignment and on Days 1 (prior to dosing), 3 and 7 as well as terminally prior to necropsy (fasted).
Electrocardiograms (bipolar limb leads I, II and III, and augmented unipolar leads aVR, aVL and aVF) were obtained for all monkeys once during the pre-treatment period and again on Day 7 (post-dosing).
The tracings were assessed for gross changes indicative of cardiac electrical dysfunction. The potential presence of abnormalities involving heart rate (lead II), sinus and atrioventricular rhythm or conductivity were determined. Heart rate, PR interval, QRS duration, QT and QTc intervals values were measured.
A series of 7 blood samples (approximately 0.5 mL each) were collected from each monkey on Days 1 and 7 at the following time points: predose, 30 minutes and 2, 3, 6, 12 and 24 hours post-dose. For this purpose, each monkey was bled by venipuncture and the samples were collected into tubes containing the anticoagulant, K2EDTA. Tubes were placed on wet ice until ready for processing.
Laboratory investigations (hematology, coagulation, clinical chemistry and urinalysis) were performed on all animals prior to start of treatment and prior to termination on Day 8.
A necropsy with tissue collection was conducted on all animals terminated during the study. The necropsy included examination of: • carcass and muscular/skeletal system; • all external surfaces and orifices; • cranial cavity and external surface of the brain; • neck with associated organs and tissues; and • thoracic, abdominal, and pelvic cavities with their associated organs and tissues. All abnormalities were described and recorded.
For all animals, all tissues indicated above were embedded in paraffin, sectioned and stained with hematoxylin and eosin and examined by light microscopy.

A short description of data set [2]: Rat IV Study (pharmacokinetics). Conditions: male Sprague Dawley rats, plasma analyte = label.
The nature of the next data set: Aqueous Solubility Study. It is filed as physicochemical. Conditions: water, aqueous buffer, thermodynamic from solid, crystalline solid form, pH >3.0, 96 hours at room temperature. The protocol:
The aqueous solubilities of compound 23 and compound W were determined according to the following procedure.
Aqueous samples of each compound were prepared as follows. Compounds were weighed (20-30 mg compound) in 4 ml clear vials prior to adding water (0.5 mL) and stirring by magnetic stirrer. 1.0N HCl was added to the suspension to adjust the pH to the desired range. After stirring for 96 hours at room temperature, the suspension was filtered through a 0.22 micron filter (Millipore, Ultrafree centrifugal filters, Durapore PVDF 0.22 μm, Cat# UFC30GVNB). The filtrate was collected and the pH measured with a pH meter.
Standard solutions of each compound were prepared according to the following procedure. […]
Aliquots of each sample and each standard solution were analyzed by HPLC analysis (Agilent 1100, injection volume 10 μL, wavelength 271 nm, column XTerra® Phenyl 5 μm, 4.6×50 mm, Part No. 186001144, mobile phase: A: 0.1% TFA in water 0.1% TFA in AcN). […] Standard curves were obtained by plotting the average of the peak area from the HPLC versus the concentrations of the standard solutions (with appropriate corrections of the weights of the standards based on total water content of the solid as determined by elemental analysis). The concentration of each sample was calculated from the peak area of the aqueous sample from the HPLC results and the slope and intercept of the standard curves. […]

Setting [3] is: doses up to 200 mg/kg/day for 7 days.
Setting [4] is: Compound W dosed IV bolus 1 mg/kg in D5W.
[5] abbreviates: Compound W dosed IV bolus 5 mg/kg in D5W.

Turning to `CCNC(=O)Nc1nc2cc(-c3cnc(C(C)(C)O)nc3)c(F)c([C@H]3CCCO3)c2[nH]1` [Compound 23, 1-ethyl-3-[6-fluoro-5-[2-(1-hydroxy-1-methyl-ethyl)pyrimidin-5-yl]-7-[(2R)-tetrahydrofuran-2-yl]-1H-benzimidazol-2-yl]urea], in data set [1] (setting [3]), the “clinical signs, body weights, electrocardiography, clinical pathology, organ weights” value is “no clinical signs, or changes in body weights, electrocardiography parameters, clinical pathology parameters, or organ weights” and the “macroscopic or microscopic findings” value is “no macroscopic or microscopic findings”. For the same compound, the “no observed effect level (NOEL)” value in data set [1] (oral gavage once per day for 7 days) came out at 200 mg/kg/day. Besides, the “exposures for different dosage levels” value in data set [1] (toxicokinetics) is “dose related”. Besides, in data set [2] (setting [4]), the AUCextrap came to 310 ng·h/mL, the Cl_obs is 54.9 mL/min/kg and the Vss_obs was 3.8 L/kg. In data set [2] (setting [5]), this compound came in with an AUCextrap of 3060 ng·h/mL, a Cl_obs of 27.3 mL/min/kg and a Vss_obs of 4.08 L/kg. The solubility at 96 h in the data set “Aqueous Solubility Study” was < 1 µg/mL.
